Laboratory results: ChEMBL document CHEMBL6096689, “Structure-Guided Development of ClpP Agonists with Potent Therapeutic Activities against Staphylococcus aureus Infection” (J Med Chem, 2025)
Converted amounts (≈) assume the structure as drawn.

Tested on: Staphylococcus aureus
Test: microbe, parasite or virus in culture
Assay type: functional
Settings: Newman, time 18 hrs
Description: Antibacterial activity against Staphylococcus aureus Newman assessed as inhibition of visible growth of bacteria incubated for 18 hrs by absorbance based analysis

| SMILES | MIC [µg/mL] |
| --- | --- |
| CC[C@H](C)[C@H]1C(=O)N(Cc2cccc3ccccc23)C[C@@H]2N(C(=O)NCCCC(F)(F)F)CCC(=O)N12 | 1 (≈ 1.93 µM) |
| O=C1[C@H](Cc2ccc(O)cc2)N2C(=O)CCN(C(=O)NCc3ccccc3)[C@H]2CN1Cc1cccc2ccccc12 | 16 (≈ 29.2 µM) |
| CC[C@H](C)[C@H]1C(=O)N(Cc2cccc3ccccc23)C[C@@H]2N(C(=O)NCCc3ccco3)CCC(=O)N12 | > 128 |
| O=C1[C@H](CC2CCC2)N2C(=O)CCN(C(=O)NCCCC(F)(F)F)[C@H]2CN1Cc1cccc2ccccc12 | 4 (≈ 7.54 µM) |
| CC[C@H](C)[C@H]1C(=O)N(Cc2cccc3ccccc23)C[C@@H]2N(C(=O)NCCC(=O)OC)CCC(=O)N12 | 128 (≈ 259 µM) |
| CCCCNC(=O)N1CCC(=O)N2[C@@H]([C@@H](C)CC)C(=O)N(Cc3cccc4ccccc34)C[C@H]12 | 2 (≈ 4.3 µM) |
| CC[C@H](C)[C@H]1C(=O)N(Cc2cccc3ccccc23)C[C@@H]2N(C(=O)NCC(C)C)CCC(=O)N12 | 8 (≈ 17.2 µM) |
| O=C1[C@H](CC2CCCC2)N2C(=O)CCN(C(=O)NCCCC(F)(F)F)[C@H]2CN1Cc1cccc2ccccc12 | 4 (≈ 7.34 µM) |
| CC[C@H](C)[C@H]1C(=O)N(Cc2cc(Cl)cc(Cl)c2)C[C@@H]2N(C(=O)NCCCC(F)(F)F)CCC(=O)N12 | 16 (≈ 29.8 µM) |
| [N-]=[N+]=NCCC[C@H]1C(=O)N(Cc2cccc3ccccc23)C[C@@H]2N(C(=O)NCCCC(F)(F)F)CCC(=O)N21 | 2 (≈ 3.67 µM) |
| CC[C@H](C)[C@H]1C(=O)N(Cc2cccc3ccccc23)C[C@@H]2N(C(=O)NCCCCCl)CCC(=O)N12 | 4 (≈ 8.02 µM) |
| CC[C@H](C)[C@H]1C(=O)N(Cc2cccc3ccccc23)C[C@@H]2N(C(=O)NCCC(C)C)CCC(=O)N12 | 2 (≈ 4.18 µM) |
| CC[C@H](C)[C@H]1C(=O)N(Cc2ccc(C)c3ccccc23)C[C@@H]2N(C(=O)NCCCC(F)(F)F)CCC(=O)N12 | 0.25 (≈ 0.469 µM) |

The next lines start with the values.

| MIC [µg/mL] | SMILES |
| --- | --- |
| 32 (≈ 66.9 µM) | CC[C@H](C)[C@H]1C(=O)N(Cc2cccc3ccccc23)C[C@@H]2N(C(=O)NCC(C)(C)C)CCC(=O)N12 |
| > 128 | CC[C@H](C)[C@H]1C(=O)N(Cc2cccc3ccccc23)C[C@@H]2N(C(=O)NCCCCCCl)CCC(=O)N12 |
| 4 (≈ 8.25 µM) | CC[C@H](C)[C@H]1C(=O)N(Cc2cccc3ccccc23)C[C@@H]2N(C(=O)NCCCCl)CCC(=O)N12 |
| 2 (≈ 4.18 µM) | CCC(C)CNC(=O)N1CCC(=O)N2[C@@H]([C@@H](C)CC)C(=O)N(Cc3cccc4ccccc34)C[C@H]12 (stereo not given in full) |
| 8 (≈ 15.5 µM) | CSCC[C@H]1C(=O)N(Cc2cccc3ccccc23)C[C@@H]2N(C(=O)NCc3ccccc3)CCC(=O)N21 |
| 2 (≈ 3.96 µM) | CC(C)[C@H]1C(=O)N(Cc2cccc3ccccc23)C[C@@H]2N(C(=O)NCCCC(F)(F)F)CCC(=O)N12 |
| 0.5 (≈ 0.932 µM) | CC[C@H](C)[C@H]1C(=O)N(Cc2ccc(F)c3ccccc23)C[C@@H]2N(C(=O)NCCCC(F)(F)F)CCC(=O)N12 |

Target: T1, ATP-dependent Clp protease proteolytic subunit (Staphylococcus aureus (strain NCTC 8325), UniProt Q2G036)
T1 sequence (Q2G036 whole entry): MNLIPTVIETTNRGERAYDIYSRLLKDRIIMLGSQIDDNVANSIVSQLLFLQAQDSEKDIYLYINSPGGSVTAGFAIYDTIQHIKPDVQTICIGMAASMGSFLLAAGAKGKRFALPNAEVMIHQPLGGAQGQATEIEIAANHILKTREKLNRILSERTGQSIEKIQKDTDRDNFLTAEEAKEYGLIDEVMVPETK
Test: Agonist activity at Staphylococcus aureus ClpP extracted from Escherichia coli BL21 (DE3) cells using alpha-casein as substrate assessed as substrate hydrolysis preincubated for 15 mins followed by substrate addition and measured after 2 hrs by SDS-PAGE analysis
Settings: not given

| SMILES | EC50 [nM] |
| --- | --- |
| CC[C@H](C)[C@H]1C(=O)N(Cc2cccc3ccccc23)C[C@@H]2N(C(=O)NCCCC(F)(F)F)CCC(=O)N12 | 720 |
| O=C1[C@H](Cc2ccc(O)cc2)N2C(=O)CCN(C(=O)NCc3ccccc3)[C@H]2CN1Cc1cccc2ccccc12 | 1100 |
| CC[C@H](C)[C@H]1C(=O)N(Cc2cccc3ccccc23)C[C@@H]2N(C(=O)NCCc3ccco3)CCC(=O)N12 | 5200 |
| O=C1[C@H](CC2CCC2)N2C(=O)CCN(C(=O)NCCCC(F)(F)F)[C@H]2CN1Cc1cccc2ccccc12 | 2000 |
| CC[C@H](C)[C@H]1C(=O)N(Cc2cccc3ccccc23)C[C@@H]2N(C(=O)NCCC(=O)OC)CCC(=O)N12 | 17300 |
| CCCCNC(=O)N1CCC(=O)N2[C@@H]([C@@H](C)CC)C(=O)N(Cc3cccc4ccccc34)C[C@H]12 | 1600 |
| CC[C@H](C)[C@H]1C(=O)N(Cc2cccc3ccccc23)C[C@@H]2N(C(=O)NCC(C)C)CCC(=O)N12 | 3800 |
| O=C1[C@H](CC2CCCC2)N2C(=O)CCN(C(=O)NCCCC(F)(F)F)[C@H]2CN1Cc1cccc2ccccc12 | 2200 |
| CC[C@H](C)[C@H]1C(=O)N(Cc2cc(Cl)cc(Cl)c2)C[C@@H]2N(C(=O)NCCCC(F)(F)F)CCC(=O)N12 | 780 |
| [N-]=[N+]=NCCC[C@H]1C(=O)N(Cc2cccc3ccccc23)C[C@@H]2N(C(=O)NCCCC(F)(F)F)CCC(=O)N21 | 1500 |
| CC[C@H](C)[C@H]1C(=O)N(Cc2cccc3ccccc23)C[C@@H]2N(C(=O)NCCCCCl)CCC(=O)N12 | 1100 |
| CC[C@H](C)[C@H]1C(=O)N(Cc2cccc3ccccc23)C[C@@H]2N(C(=O)NCCC(C)C)CCC(=O)N12 | 1900 |
| CC[C@H](C)[C@H]1C(=O)N(Cc2ccc(C)c3ccccc23)C[C@@H]2N(C(=O)NCCCC(F)(F)F)CCC(=O)N12 | 1520 |

Further lines, results first:

| EC50 [nM] | SMILES |
| --- | --- |
| 4900 | CC[C@H](C)[C@H]1C(=O)N(Cc2cccc3ccccc23)C[C@@H]2N(C(=O)NCC(C)(C)C)CCC(=O)N12 |
| > 40000 | CC[C@H](C)[C@H]1C(=O)N(Cc2cccc3ccccc23)C[C@@H]2N(C(=O)NCCCCCCl)CCC(=O)N12 |
| 1300 | CC[C@H](C)[C@H]1C(=O)N(Cc2cccc3ccccc23)C[C@@H]2N(C(=O)NCCCCl)CCC(=O)N12 |
| 1800 | CCC(C)CNC(=O)N1CCC(=O)N2[C@@H]([C@@H](C)CC)C(=O)N(Cc3cccc4ccccc34)C[C@H]12 (stereo not given in full) |
| 3100 | CSCC[C@H]1C(=O)N(Cc2cccc3ccccc23)C[C@@H]2N(C(=O)NCc3ccccc3)CCC(=O)N21 |
| 1600 | CC(C)[C@H]1C(=O)N(Cc2cccc3ccccc23)C[C@@H]2N(C(=O)NCCCC(F)(F)F)CCC(=O)N12 |
| 1010 | CC[C@H](C)[C@H]1C(=O)N(Cc2ccc(F)c3ccccc23)C[C@@H]2N(C(=O)NCCCC(F)(F)F)CCC(=O)N12 |
